Assay results: ChEMBL document CHEMBL1201862, “PubChem BioAssay data set” (2004)
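All cell lines were grown in 96-well plates and treated with compound for 48 hours. Here, GI50 denotes the concentration required for 50% inhibition of growth.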 The source made the active and inactive calls. Cut-off read from the data, not from the text of the source: active = GI50 up to about 1.1 µM and inactive = higher.

Key:
Assay in all cases: NCI-60 cell line screen, 48 h
[1] = system: MDA-MB-435
[2] = system: UO-31
[3] = system: RXF 393
[4] = system: EKVX
[5] = system: T47D
[6] = system: A498
[7] = system: OVCAR-5
[8] = system: CCRF-CEM
[9] = system: PC-3
[10] = system: NCI/ADR-RES
[11] = system: K562
[12] = system: ACHN
[13] = system: HCC 2998
[14] = system: RPMI-8226
[15] = system: MOLT-4
[16] = system: SNB-19
[17] = system: OVCAR-8
[18] = system: HOP-92
[19] = system: MDA-N

In the case of `OCCN(CCO)c1ccc2c(-c3ccccc3)cc(N(CCO)CCO)nc2n1`, the GI50 [1] is reported as > 100 µM (inactive), the GI50 [2] is reported as > 100 µM (inactive) and the GI50 [3] is reported as > 100 µM (inactive). The GI50 [4] was > 100 µM (inactive), the GI50 [5] was > 100 µM (inactive) and the GI50 [6] was 54.2 µM (inactive). For the same molecule, the GI50 [7] was > 100 µM (inactive), the GI50 [8] was > 100 µM (inactive) and the GI50 [9] was > 100 µM (inactive). The GI50 [10] was > 100 µM (inactive), the GI50 [11] was > 100 µM (inactive) and the GI50 [12] was > 100 µM (inactive). For the same molecule, the GI50 [13] was > 100 µM (inactive), the GI50 [14] was > 100 µM (inactive) and the GI50 [15] was > 100 µM (inactive). For the same molecule, the GI50 [16] was > 100 µM (inactive) and the GI50 [17] was > 100 µM (inactive).
With `Sc1nnc(CNc2ccc(-c3nnc(S)n3-c3ccc(Cl)cc3)cc2)n1-c1ccc(Cl)cc1` the GI50 [1] was 28.3 µM (inactive), the GI50 [18] was 23.9 µM (inactive) and the GI50 [2] was 16.4 µM (inactive). For the same molecule, the GI50 [3] was 45.4 µM (inactive), the GI50 [4] was 45.3 µM (inactive) and the GI50 [6] was 55.2 µM (inactive). The GI50 [7] was 18.1 µM (inactive), the GI50 [9] was 36 µM (inactive) and the GI50 [10] was > 100 µM (inactive). For the same molecule, the GI50 [11] was 30.8 µM (inactive), the GI50 [12] was 47.5 µM (inactive) and the GI50 [13] was 31.2 µM (inactive). The GI50 [19] was 26.1 µM (inactive), the GI50 [14] was 16.7 µM (inactive) and the GI50 [15] was 26.2 µM (inactive). For the same molecule, the GI50 [16] was 26.5 µM (inactive).
With `CCn1cc(C(=O)O)c(=O)c2cc(F)c(N3CCNCC3)nc21` [ENOXACIN] the GI50 [18] was 32.8 µM (inactive), the GI50 [2] was > 100 µM (inactive) and the GI50 [4] was > 100 µM (inactive). For the same molecule, the GI50 [6] was > 100 µM (inactive), the GI50 [7] was > 100 µM (inactive) and the GI50 [8] was > 100 µM (inactive). The GI50 [11] was 63.5 µM (inactive), the GI50 [12] was > 100 µM (inactive) and the GI50 [13] was > 100 µM (inactive). The GI50 [14] was > 100 µM (inactive), the GI50 [15] was 67.1 µM (inactive) and the GI50 [16] was > 100 µM (inactive). For the same molecule, the GI50 [17] was > 100 µM (inactive).
`COC(=O)[C@@H]1CN(C(=O)Cc2ccccc2)C(=O)N1` was tested, and the GI50 [1] was > 100 µM (inactive), the GI50 [18] was > 100 µM (inactive) and the GI50 [2] was > 100 µM (inactive). For the same molecule, the GI50 [3] was > 100 µM (inactive), the GI50 [4] was > 100 µM (inactive) and the GI50 [5] was > 100 µM (inactive). The GI50 [6] was > 100 µM (inactive), the GI50 [7] was > 100 µM (inactive) and the GI50 [8] was > 100 µM (inactive). The GI50 [9] was > 100 µM (inactive), the GI50 [10] was > 100 µM (inactive) and the GI50 [11] was > 100 µM (inactive). For the same molecule, the GI50 [12] was > 100 µM (inactive), the GI50 [14] was > 100 µM (inactive) and the GI50 [15] was > 100 µM (inactive). The GI50 [16] was > 100 µM (inactive) and the GI50 [17] was > 100 µM (inactive).
`[O-][N+]1=[N+]([O-])[C@@H](c2ccccc2)[C@H]1c1ccccc1` was tested, and the GI50 [1] was 18.7 µM (inactive), the GI50 [18] was 15.6 µM (inactive) and the GI50 [2] was 14.8 µM (inactive). The GI50 [3] was 14.8 µM (inactive), the GI50 [4] was 18.3 µM (inactive) and the GI50 [6] was 27.1 µM (inactive). The GI50 [7] was 19.9 µM (inactive), the GI50 [8] was 3.3 µM (inactive) and the GI50 [9] was 17.5 µM (inactive). The GI50 [10] was 17.5 µM (inactive), the GI50 [11] was 3.52 µM (inactive) and the GI50 [12] was 17.6 µM (inactive). The GI50 [19] was 16.6 µM (inactive), the GI50 [14] was 4.48 µM (inactive) and the GI50 [15] was 21.3 µM (inactive). The GI50 [16] was 18.4 µM (inactive) and the GI50 [17] was 16.8 µM (inactive).
`COc1ccc(CNc2nc(NCc3ccc(OC)cc3)nc(NC3CCCC3)n2)cc1` was tested, and the GI50 [1] was 1.48 µM (inactive), the GI50 [2] was 6.43 µM (inactive) and the GI50 [3] was 0.665 µM (active). The GI50 [4] was 19.9 µM (inactive), the GI50 [7] was 3.63 µM (inactive) and the GI50 [8] was 2.24 µM (inactive). For the same molecule, the GI50 [9] was 2.84 µM (inactive), the GI50 [10] was 2.7 µM (inactive) and the GI50 [11] was 2.99 µM (inactive). For the same molecule, the GI50 [12] was 4.47 µM (inactive), the GI50 [14] was 2.24 µM (inactive) and the GI50 [15] was 4.59 µM (inactive). The GI50 [16] was 6.28 µM (inactive) and the GI50 [17] was 4.06 µM (inactive).
`COc1ccc(C2C=C(c3ccc4c(c3)OCO4)Oc3c2c(=O)oc2ccccc32)cc1OC` (configuration not stated) was tested, and the GI50 [1] was 0.152 µM (active), the GI50 [18] was 34 µM (inactive) and the GI50 [2] was 0.527 µM (active). For the same molecule, the GI50 [3] was 0.252 µM (active), the GI50 [4] was 16.5 µM (inactive) and the GI50 [6] was 0.502 µM (active). For the same molecule, the GI50 [7] was 0.556 µM (active), the GI50 [8] was 0.406 µM (active) and the GI50 [9] was 0.429 µM (active). The GI50 [10] was 0.543 µM (active), the GI50 [11] was 0.299 µM (active) and the GI50 [12] was 0.627 µM (active). The GI50 [13] was 0.506 µM (active), the GI50 [19] was 0.15 µM (active) and the GI50 [14] was 0.254 µM (active). For the same molecule, the GI50 [15] was 0.968 µM (active), the GI50 [16] was 0.422 µM (active) and the GI50 [17] was 0.839 µM (active).
`CCCc1c[nH]c(-c2ccc(-c3cc(CCC)c(C=O)[nH]3)s2)c1` was tested, and the GI50 [2] was 0.0165 µM (active), the GI50 [3] was 21.7 µM (inactive) and the GI50 [6] was 7.82 µM (inactive). For the same molecule, the GI50 [8] was 21.8 µM (inactive), the GI50 [11] was 12.4 µM (inactive) and the GI50 [12] was 19.2 µM (inactive). For the same molecule, the GI50 [15] was 26.4 µM (inactive), the GI50 [16] was 22 µM (inactive) and the GI50 [17] was 13.6 µM (inactive).
In the case of `OC[C@@H](O)[C@H]1NC[C@@H](O)[C@H]1O`, the GI50 [1] is reported as > 100 µM (inactive), the GI50 [18] is reported as > 100 µM (inactive) and the GI50 [2] is reported as > 100 µM (inactive). For the same molecule, the GI50 [3] was > 100 µM (inactive), the GI50 [4] was > 100 µM (inactive) and the GI50 [6] was > 100 µM (inactive). The GI50 [7] was > 100 µM (inactive), the GI50 [8] was > 100 µM (inactive) and the GI50 [9] was > 100 µM (inactive). For the same molecule, the GI50 [12] was > 100 µM (inactive), the GI50 [13] was > 100 µM (inactive) and the GI50 [19] was > 100 µM (inactive). The GI50 [14] was > 100 µM (inactive), the GI50 [15] was > 100 µM (inactive) and the GI50 [16] was > 100 µM (inactive). The GI50 [17] was > 100 µM (inactive).
